Test results: patent US20100003208A1, “Skin Care Products, As Well As Foods and Beverages Containing 6-O-PUFA Ascorbic Esters” (Suntory Holdings Limited, priority 2004, published 2010)

Legend:
[1] = tested on: human skin strips; test: Permeability of ascorbic acid to the tissue of human skin strips (modified Bronov diffusion cell); type: in vitro ADME; conditions: 100 mM (3.38% w/w; PBS(−)) on keratinized layer, re-dosed at 4 and 17 h, 24 hours; compared with unmodified vitamin C; FIG. 3
Experimental: A human skin section extracted from the right abdominal part of a volunteer with an informed consent was vertically split into small strips, which were set in a modified Bronov diffusion cell chamber. With the underside of the skin immersed in DMEM (2 mL) to supply nutrients, the keratinized layer was aerated with 5% CO2 to maintain the pH of the medium at 7.25. […] The total quantity of vitamin C (the sum of reduced and oxidized forms of vitamin C) and the quantity of reduced form of vitamin C in the epidermis and the dermis were measured; the total quantity of vitamin C was measured in the presence of 16 mM dithiothreitol as a reducing agent, whereas the quantity of reduced form of vitamin C was measured without adding any such reducing agent. The measured values were used to calculate the proportion of total vitamin C as occupied by reduced form of vitamin C. Similarly, 6-O-arachidonoyl ascorbate and 6-O-docosahexaenoyl ascorbate, as well as ascorbic acid (comparison) were evaluated and the results are also shown in FIG. 3.

[2] = tested on: human skin keratocytes HaCaT; test: Protective effect on apoptosis of HaCaT keratocytes under UVA irradiation (WST-1 viability); type: cell-based; conditions: 200 μM added 2 hours before 32-48 mJ/cm^2 UVA; WST-1 24 hours after irradiation; FIG. 2
Experimental: Human skin keratocytes HaCaT (the cell line granted by courtesy of Dr. Fusenig at University of Heidelberg) were inoculated on a 24-well plate at a density of 10,000 cells/well in a 10% fetal bovine serum (FBS) containing Dulbecco modified Eagle medium (DMEM); 18 hours later, the medium was irradiated with 32-48 mJ/cm^2 of UVA. Two hours before the irradiation, 100-200 μM of 6-O-dihomo-γ-linolenoyl ascorbate had been added to the medium but it was removed just before the irradiation and the medium was rinsed. UVA irradiation was performed in PBS but in the absence of the drug; after the irradiation, culture was continued in the 10% FBS containing DMEM and 24 hours after the irradiation, the cell viability was evaluated by a mitochondrial dehydrogenase activity assay method using 2-(4-iodophenyl)-3-(4-nitrophenyl)-5-(2,4-disulfophenyl)-2H-tetrazolium monosodium salt (WST-1).

[3] = tested on: streptozotocin-induced diabetic model; conditions: in vivo; cited from earlier work
[4] = target: aldose reductase (Homo sapiens, UniProt P15121); conditions: cited from earlier work

Row | amount of vitamin C in the dermis [1] | SMILES | viability of human skin keratocytes [2] | efficacy in streptozotocin-induced diabetic model [3] | aldose reductase inhibitory action [4]
1 | increased markedly | CCCCC/C=C\C/C=C\C/C=C\C/C=C\CCCC(=O)OC[C@H](O)[C@H]1OC(=O)C(O)=C1O [6-O-arachidonoyl ascorbate] |  |  | 
2 | increased markedly | CCCCC/C=C\C/C=C\C/C=C\CCCCCCC(=O)OC[C@H](O)[C@H]1OC(=O)C(O)=C1O [6-O-dihomo-γ-linolenoyl ascorbate] | improved the viability |  | 
3 |  | CCCCC/C=C\C/C=C\C/C=C\CCCCC(=O)OC[C@H](O)[C@H]1OC(=O)C(O)=C1O [6-O-γ-linolenoyl ascorbate] |  | effective | aldose reductase inhibitory action
